Experimental data from ChEMBL document CHEMBL5728961, “Compounds useful for treating gastrointestinal tract disorders” (2022).

Key:
[1] = molecular target: T1, Sodium/hydrogen exchanger 3 (Homo sapiens, UniProt P48764); assay: Cell-Based Assay of NHE-3 Activity (Pre-Incubation Inhibition): Rat and human NHE-3-mediated Na+-dependent H+ antiport was measured using a modification of the pH sensitive dye method originally reported by Paradiso (Proc. Natl. Acad. Sci. USA. (1984) 81(23): 7436-7440). PS120 fibroblasts stably expressing human NHE3 and NHERF2 were obtained from Mark Donowitz (Baltimore, Md.). Opossum kidney (OK) cells were obtained from the ATCC and propagated per their instructions. The rat NHE-3 gene (GenBank M85300) was introduced into OK cells via electroporation, and cells were seeded into 96 well plates and grown overnight. Medium was aspirated from the wells then incubated for 30 min at 37° C. with NH4Cl-HEPES buffer (20 mM NH4Cl, 80 mM NaCl, 50 mM HEPES, 5 mM KCl, 2 mM CaCl2, 1 mM MgCl2, pH 7.4) containing 5 μM BCECF-AM. Cells were washed once with Ammonium free, Na+-free HEPES (100 mM choline, 50 mM HEPES, 10 mM glucose, 5 mM KCl, 2 mM CaCl2, 1 mM MgCl2, pH 7.4) and incubated in the same buffer for 10 minutes at room temperature to lower intracellular pH with 0-30 μM test compound. […] Changes in intracellular pH were monitored using a FLIPR Tetra® (Molecular Devices, Sunnyvale, Calif.) by excitation at λex 439 to 505 nm, and measuring BCECF fluorescence at λem 538 nm. The initial rate of the fluorescence ratio change was used as a measure of NHE-mediated Na+/H+ activity, and reported as the change in fluorescence ratio per minute.
T1 sequence (P48764 whole entry): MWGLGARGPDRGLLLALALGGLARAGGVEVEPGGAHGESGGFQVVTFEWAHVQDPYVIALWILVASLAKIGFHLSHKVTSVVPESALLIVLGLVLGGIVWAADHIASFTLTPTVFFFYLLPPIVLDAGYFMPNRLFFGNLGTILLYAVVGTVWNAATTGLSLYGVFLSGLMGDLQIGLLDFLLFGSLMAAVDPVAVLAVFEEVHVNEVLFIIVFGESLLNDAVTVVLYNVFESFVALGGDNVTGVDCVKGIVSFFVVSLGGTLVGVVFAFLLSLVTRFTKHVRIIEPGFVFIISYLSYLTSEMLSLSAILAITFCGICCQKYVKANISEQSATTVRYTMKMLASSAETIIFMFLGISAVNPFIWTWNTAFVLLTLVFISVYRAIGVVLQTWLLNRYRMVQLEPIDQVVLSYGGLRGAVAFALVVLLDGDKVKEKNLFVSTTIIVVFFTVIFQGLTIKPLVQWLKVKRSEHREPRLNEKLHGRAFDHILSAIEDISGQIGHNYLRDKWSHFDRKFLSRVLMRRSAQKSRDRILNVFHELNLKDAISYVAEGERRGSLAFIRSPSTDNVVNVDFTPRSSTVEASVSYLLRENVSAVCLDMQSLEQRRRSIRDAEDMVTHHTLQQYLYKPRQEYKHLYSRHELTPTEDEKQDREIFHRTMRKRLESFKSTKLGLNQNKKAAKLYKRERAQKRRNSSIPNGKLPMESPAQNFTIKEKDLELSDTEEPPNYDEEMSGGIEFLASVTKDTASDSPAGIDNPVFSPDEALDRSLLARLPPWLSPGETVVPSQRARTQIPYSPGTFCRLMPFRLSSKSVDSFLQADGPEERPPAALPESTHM

[2] = molecular target: T1, Sodium/hydrogen exchanger 3; assay: Cell-Based Assay of NHE-3 Activity (Persistent Inhibition): The ability of compounds to inhibit human and rat NHE-3-mediated Na+ dependent H+ antiport after application and washout was measured using a modification of the pH sensitive dye method described above. PS120 fibroblasts stably expressing human NHE3 and NHERF2 were obtained from Mark Donowitz (Baltimore, Md.). Opossum kidney (OK) cells were obtained from the ATCC and propagated per their instructions. The rat NHE-3 gene was introduced into OK cells via electroporation, and cells were seeded into 96 well plates and grown overnight. Medium was aspirated from the wells, cells were washed once with NaCl-HEPES buffer (100 mM NaCl, 50 mM HEPES, 10 mM glucose, 5 mM KCl, 2 mM CaCl2, 1 mM MgCl2, pH 7.4), then overlayed with NaCl-HEPES buffer containing 0-30 μM test compound. After a 60 min incubation at room temperature, the test drug containing buffer was aspirated from the cells. Following aspiration, cells were washed once with NaCl-HEPES buffer without drug, then incubated for 30 min at 37° C. with NH4Cl-HEPES buffer (20 mM NH4Cl, 80 mM NaCl, 50 mM HEPES, 5 mM KCl, 2 mM CaCl2, 1 mM MgCl2, pH 7.4) containing 5 μM BCECF-AM. Cells were washed once with Ammonium free, Na+-free HEPES (100 mM choline, 50 mM HEPES, 10 mM glucose, 5 mM KCl, 2 mM CaCl2, 1 mM MgCl2, pH 7.4) and incubated in the same buffer for 10 minutes at room temperature to lower intracellular pH. NHE-3-mediated recovery of neutral intracellular pH was initiated ([…]) by addition of Na-HEPES buffer. […] Changes in intracellular pH were monitored using a FLIPR Tetra® (Molecular Devices, Sunnyvale, Calif.) by excitation at λex 439 to 505 nm, and measuring BCECF fluorescence at λem 538 nm. The initial rate of the fluorescence ratio change was used as a measure of NHE-mediated Na+/H+ activity, and reported as the change in fluorescence ratio per minute.

SMILES | IC50 [1] [nM] | IC50 [2] [nM]
Cc1cc(S(=O)(=O)N2CC[C@@H](COCCOCCNC(=O)NCCCCNC(=O)NCCOCCOC[C@@H]3CCN(S(=O)(=O)c4ccc(O[C@H]5c6cc(Cl)cc(C#N)c6C[C@@H]5N(C)C)c(C)c4)C3)C2)ccc1O[C@H]1c2cc(Cl)cc(C#N)c2C[C@@H]1N(C)C | < 100 | < 100
CN(C)[C@H]1Cc2c(Cl)cc(Cl)cc2[C@@H]1Oc1ccc(S(=O)(=O)NCCCCCCCCNC(=O)NCCCCNC(=O)NCCCCCCCCNS(=O)(=O)c2ccc(O[C@H]3c4cc(Cl)cc(Cl)c4C[C@@H]3N(C)C)cc2)cc1 | > 1000 | > 1000
N[C@@H]1CCCN([C@H]2Cc3c(Cl)cc(Cl)cc3[C@@H]2Oc2ccc(S(=O)(=O)NCCCCCCn3cc(CNC(=O)NCCCCNC(=O)NCc4cn(CCCCCCNS(=O)(=O)c5ccc(O[C@H]6c7cc(Cl)cc(Cl)c7C[C@@H]6N6CCC[C@@H](N)C6)cc5)nn4)nn3)cc2)C1 | < 100 | < 100
O=C(NCCCCNC(=O)NCCOCCOCCNS(=O)(=O)c1ccc(O[C@H]2c3cc(Cl)cc(Cl)c3C[C@@H]2N2C3CCCC2CC3)cc1)NCCOCCOCCNS(=O)(=O)c1ccc(O[C@H]2c3cc(Cl)cc(Cl)c3C[C@@H]2N2C3CCCC2CC3)cc1 | < 100 | < 100
N[C@@H]1CCCN([C@H]2Cc3c(Cl)cc(Cl)cc3[C@@H]2Oc2ccc(S(=O)(=O)NCCOCCOCCNC(=O)NCCCCNC(=O)NCCOCCOCCNS(=O)(=O)c3ccc(O[C@H]4c5cc(Cl)cc(Cl)c5C[C@@H]4N4CCC[C@@H](N)C4)c(F)c3)cc2F)C1 | < 100 | < 100
Cc1cc(Cl)cc2c1C[C@H](N(C)C)[C@H]2Oc1ccc(S(=O)(=O)NCCOCCOCCNC(=O)NCCCCNC(=O)NCCOCCOCCNS(=O)(=O)c2ccc(O[C@H]3c4cc(Cl)cc(C)c4C[C@@H]3N(C)C)c(F)c2)cc1F | < 100 | < 100
Cc1cc(S(=O)(=O)NCCCCCCCCNC(=O)NCCCCNC(=O)NCCCCCCCCNS(=O)(=O)c2ccc(O[C@H]3c4cc(Cl)cc(Cl)c4C[C@@H]3N(C)C)c(C)c2)ccc1O[C@H]1c2cc(Cl)cc(Cl)c2C[C@@H]1N(C)C | > 1000 | > 1000
Cc1cc(Cl)cc2c1C[C@H](N1CCNCC1)[C@H]2Oc1ccc(S(=O)(=O)NCCOCCOCCNC(=O)NCCCCNC(=O)NCCOCCOCCNS(=O)(=O)c2ccc(O[C@H]3c4cc(Cl)cc(C)c4C[C@@H]3N3CCNCC3)cc2)cc1 | < 100 | < 100
CN(C)[C@@H]1CCCN([C@H]2Cc3c(C#N)cc(Cl)cc3[C@@H]2Oc2ccc(S(=O)(=O)NCCOCCOCCNC(=O)NCCCCNC(=O)NCCOCCOCCNS(=O)(=O)c3ccc(O[C@H]4c5cc(Cl)cc(C#N)c5C[C@@H]4N4CCC[C@@H](N(C)C)C4)c(F)c3)cc2F)C1 | > 1000 | > 1000
Cc1cc(S(=O)(=O)NCCOCCOCCNC(=O)NCCCCNC(=O)NCCOCCOCCNS(=O)(=O)c2ccc(O[C@H]3c4cc(Cl)cc(C)c4C[C@@H]3N3CCC[C@@H](N)C3)c(C)c2)ccc1O[C@H]1c2cc(Cl)cc(C)c2C[C@@H]1N1CCC[C@@H](N)C1 | < 100 | < 100
Cc1cc(Cl)cc2c1C[C@H](N1CCC[C@@H](N)C1)[C@H]2Oc1ccc(S(=O)(=O)NCCOCCOCCNC(=O)NCCCCNC(=O)NCCOCCOCCNS(=O)(=O)c2ccc(O[C@H]3c4cc(Cl)cc(C)c4C[C@@H]3N3CCC[C@@H](N)C3)c(F)c2)cc1F | < 100 | < 100
N[C@@H]1CCCN([C@H]2Cc3c(Cl)cc(Cl)cc3[C@@H]2Oc2c(F)cc(S(=O)(=O)NCCOCCOCCNC(=O)NCCCCNC(=O)NCCOCCOCCNS(=O)(=O)c3cc(F)c(O[C@H]4c5cc(Cl)cc(Cl)c5C[C@@H]4N4CCC[C@@H](N)C4)c(F)c3)cc2F)C1 | < 100 | < 100
Cc1cc(S(=O)(=O)NCCOCCOCCNC(=O)NCCCCNC(=O)NCCOCCOCCNS(=O)(=O)c2ccc(O[C@H]3c4cc(Cl)cc(C#N)c4C[C@@H]3N3CCC[C@@H](N)C3)c(C)c2)ccc1O[C@H]1c2cc(Cl)cc(C#N)c2C[C@@H]1N1CCC[C@@H](N)C1 | > 1000 | > 1000
Cc1cc(O[C@H]2c3cc(Cl)cc(Cl)c3C[C@@H]2N2CCC[C@@H](N)C2)c(F)cc1S(=O)(=O)NCCOCCOCCNC(=O)NCCCCNC(=O)NCCOCCOCCNS(=O)(=O)c1cc(F)c(O[C@H]2c3cc(Cl)cc(Cl)c3C[C@@H]2N2CCC[C@@H](N)C2)cc1C | < 100 | < 100
Cc1cc(S(=O)(=O)N[C@@H]2CCN(CCOCCNC(=O)NCCCCNC(=O)NCCOCCN3CC[C@@H](NS(=O)(=O)c4ccc(O[C@H]5c6cc(Cl)cc(C#N)c6C[C@@H]5N(C)C)c(C)c4)C3)C2)ccc1O[C@H]1c2cc(Cl)cc(C#N)c2C[C@@H]1N(C)C | < 100 | < 100
CN(C)[C@@H]1CCCN([C@H]2Cc3c(Cl)cc(Cl)cc3[C@@H]2Oc2ccc(S(=O)(=O)NCCOCCOCCNC(=O)NCCCCNC(=O)NCCOCCOCCNS(=O)(=O)c3ccc(O[C@H]4c5cc(Cl)cc(Cl)c5C[C@@H]4N4CCC[C@@H](N(C)C)C4)c(F)c3)cc2F)C1 | < 100 | < 100
Cc1cc(S(=O)(=O)NCCOCCOCCNC(=O)NCCCCNC(=O)NCCOCCOCCNS(=O)(=O)c2ccc(O[C@H]3c4cc(Cl)cc(Cl)c4C[C@@H]3N3CCC[C@@H](N(C)C)C3)c(C)c2)ccc1O[C@H]1c2cc(Cl)cc(Cl)c2C[C@@H]1N1CCC[C@@H](N(C)C)C1 | < 100 | < 100
Cc1cc(S(=O)(=O)NCCOCCOCCNC(=O)NCCCCNC(=O)NCCOCCOCCNS(=O)(=O)c2cc(C)c(O[C@H]3c4cc(Cl)cc(Cl)c4C[C@@H]3N3CCC[C@@H](N)C3)cc2F)c(F)cc1O[C@H]1c2cc(Cl)cc(Cl)c2C[C@@H]1N1CCC[C@@H](N)C1 | < 100 | < 100
CN(C)[C@H]1Cc2c(cc(Cl)cc2C(F)(F)F)[C@@H]1Oc1ccc(S(=O)(=O)NCCOCCOCCNC(=O)NCCCCNC(=O)NCCOCCOCCNS(=O)(=O)c2ccc(O[C@H]3c4cc(Cl)cc(C(F)(F)F)c4C[C@@H]3N(C)C)cc2)cc1 | > 1000 | > 1000
Cc1cc(Cl)cc2c1C[C@H](N1CCC[C@@H](N)C1)[C@H]2Oc1ccc(S(=O)(=O)NCCOCCOCCNC(=O)NCCCCNC(=O)NCCOCCOCCNS(=O)(=O)c2ccc(O[C@H]3c4cc(Cl)cc(C)c4C[C@@H]3N3CCC[C@@H](N)C3)cc2)cc1 | < 100 | < 100
CN(C)[C@H]1Cc2c(OC(F)(F)F)cc(Cl)cc2[C@@H]1Oc1ccc(S(=O)(=O)NCCOCCOCCNC(=O)NCCCCNC(=O)NCCOCCOCCNS(=O)(=O)c2ccc(O[C@H]3c4cc(Cl)cc(OC(F)(F)F)c4C[C@@H]3N(C)C)cc2)cc1 | > 1000 | > 1000
COc1cc(Cl)cc2c1C[C@H](N1CCC[C@@H](N)C1)[C@H]2Oc1ccc(S(=O)(=O)NCCOCCOCCNC(=O)NCCCCNC(=O)NCCOCCOCCNS(=O)(=O)c2ccc(O[C@H]3c4cc(Cl)cc(OC)c4C[C@@H]3N3CCC[C@@H](N)C3)cc2)cc1 | < 100 | < 100
N#Cc1cc(Cl)cc2c1C[C@H](N1CCC[C@@H](N)C1)[C@H]2Oc1ccc(S(=O)(=O)NCCOCCOCCNC(=O)NCCCCNC(=O)NCCOCCOCCNS(=O)(=O)c2ccc(O[C@H]3c4cc(Cl)cc(C#N)c4C[C@@H]3N3CCC[C@@H](N)C3)cc2)cc1 | < 100 | < 100
